We go through 15 compounds from patent US12492215B2, “Pyrrolotriazine compounds acting as MNK inhibitor” (JUMBO DRUG BANK CO., LTD., priority 2019, dated 2025).

In one data set the target is MNK2 (h) protein kinase (Homo sapiens (Human), UniProt Q9HBH9). As to the kind of experiment: Inhibitory activity against MNK2 protein kinase (KinaseProfiler, 33P-ATP filter-binding). In kind it is biochemical. The settings on record: myelin basic protein substrate, 40 min room temperature. Here is the method:
1. In Vitro Evaluation of Inhibitory Activity of Compounds Disclosed Herein Against MNK2 Protein Kinase
Purpose of experiment: to test the inhibitory activity of the compounds against MNK2 protein kinase
Experimental materials: assay buffer: 8 mM 3-(N-morpholino)propanesulfonic acid, 0.2 mM disodium ethylenediaminetetraacetate, 0.01% polyoxyethylene lauryl ether, 5% glycerol, 0.1% β-mercaptoethanol and 1 mg of bovine serum albumin
Experimental operation: Mnk2 protein kinase inhibitory activity assays were performed using the KinaseProfiler™ service from Eurofins Pharma Discovery Services UK Limited. Serially diluted DMSO solutions containing the compounds to be tested (3-fold serial dilution, starting from 10 μM), MNK2 (h) protein kinase and 0.33 mg/mL myelin basic protein were added to a freshly prepared buffer (pH 7.0), and then stirred homogeneously. The reaction was initiated by adding a mixture of ^33P-ATP (intensity of radioactivity: 10 μCi/μL) and 10 mM magnesium acetate. After the resulting mixture was reacted at room temperature for 40 min, the reaction was terminated by adding phosphoric acid to dilute to a concentration of 0.5%. 10 μL of the reaction solution was filtered using a P30 filtermat, and then the filtermat was washed four times with 0.425% phosphoric acid for 4 min each, followed by washing once with methanol. After drying, the intensity of radioactivity was determined using the Filter-Binding method.
The protein kinase inhibitory activity of the compounds was expressed as a percentage of the residual protein kinase activity relative to the blank substrate (DMSO alone). The Prism4 software package (GraphPad) was used to calculate IC50 values and fit curves.

The test system of data set [1] is eIF4E phosphorylation of HCT116 cell strain. The experiment in a line: Inhibition of eIF4E phosphorylation in HCT116 cell strain (AlphaLISA p-eIF4E Ser209). It is filed as cell-based. The following applies: Homo sapiens, HCT-116; HCT116 cells, 3 h incubation. The source says:
3. In Vitro Evaluation of Inhibitory Activity of Compounds Disclosed Herein Against eIF4E Phosphorylation Purpose of experiment: to test the inhibition (IC50) of the compounds against eIF4E phosphorylation of HCT116 cell strain. Experimental materials: HCT116 cells (ATCC), RPM11640 medium (Life technology), fetal bovine serum (Hyclone), double antibodies (penicillin, streptomycin) (Millipore), phosphate buffer (Corning), 384-well cell plate (PerkinElmer), and AlphaLISA® SureFire® Ultra™ p-eIF4E (Ser209) Assay Kit (PerkinElmer). Experimental operation: HCT116 cells were digested to make a cell suspension, which was then plated in a 96-well plate. The cell plate was then placed in an incubator for overnight incubation. Compounds were diluted to corresponding concentrations and added to the cell plate, and the resulting mixture was incubated for 3 h. The cells were subsequently lysed with a lysis buffer, and the lysate was transferred to a 384-well plate. A mixed receptor was freshly prepared according to the kit instructions and added to the 384-well plate, and the mixture was incubated at room temperature for 1 h. Then a mixed donor was freshly prepared according to the kit instructions and added to the 384-well plate, and the resulting mixture was incubated at room temperature for 1 h. The signals were read on EnVision using the standard AlphaLISA program, curves were fitted using Graphpad prism, and the IC50 values were calculated.
For orientation: In Alpha technology, singlet oxygen from a donor bead excites a nearby acceptor bead.

A short description of data set [2]: Pharmacokinetic evaluation in mice. In kind it is in vivo, CD-1 mice. The following applies: male, CD-1, mouse, plasma; for AUC(0-t) / half-life: PO 2 mg/kg; for AUC(0-t): read-out: Area under the plasma drug concentration-time curve AUC0-last PO; for half-life: read-out: Half-life T1/2 (PO) (converted); for Cmax: intragastric 2 mg/kg, intravenous 0.5 mg/kg (route of Cmax not given), read-out: Peak concentration Cmax. The method, then:
4. Pharmacokinetic Evaluation of Compounds Disclosed Herein
Purpose of experiment: to test pharmacokinetic parameters of the compounds in CD-1 mice
Experimental materials: CD-1 mice (Male, 7-9 weeks age, Shanghai Sippe-Bk Lab Animal Co., Ltd.)
Experimental operation: pharmacokinetic characteristics of the compounds after intravenous injection and oral administration for the rodent were tested by a standard scheme, and the candidate compounds were each formulated into a clear solution or a uniform suspension in the experiments and intravenously administered and intragastrically administered once to a mouse. The vehicle for the intravenous injection and oral administration was […] hydroxypropyl-β-cyclodextrin aqueous solution or normal saline solution. […] Two mice were subjected to intravenous injection at a dose of 0.5 mg/kg, and plasma samples were collected at 0 h (before administration) and 0.083, 0.25, 0.5, 1, 2, 4, 8, 12 and 24 h (after administration); the other two mice were subjected to intragastric administration at a dose of 2 mg/kg, and plasma samples were collected at 0 h (before administration) and 0.25, 0.5, 1, 2, 4, 8, 12 and 24 h (after administration). Whole blood samples within 24 h were collected and each centrifuged at 3000 g for 10 min. The supernatant was separated to obtain plasma sample, and acetonitrile solution containing internal standard whose volume is […] that of the plasma sample was added to precipitate the protein. The mixture was vortexed at 800 rpm for 10 min, and then 1 μL of supernatant was taken for injection. Plasma concentrations were quantitatively analyzed by LC-MS/MS method, and pharmacokinetic parameters, such as peak concentration (Cmax), clearance (CL), half-life (T1/2), tissue distribution (Vdss), area under the plasma drug concentration-time curve (AUC0-last) and bioavailability (F), were calculated.

For data set [3], the system named is CT-26 mouse colon cancer graft tumor. The experiment in a line: In vivo efficacy in CT-26 mouse graft tumor. Also on record: species or system mice. The settings on record: QD, 21-day treatment, CT-26 graft tumor. Here is the method:
5. In Vivo Efficacy Experiment of Compound Disclosed Herein for CT-26 Mouse Graft Tumor
Purpose of experiment: to determine in vivo efficacy of compound for CT-26 mouse graft tumor
Experimental materials: CT-26 cells, RMPI-1640 medium containing 10% fetal bovine serum, and mice (female, Shanghai Sippe-Bk Lab Animal Co., Ltd.)
Experimental operation: CT-26 cells were cultured in RMPI-1640 medium containing 10% fetal bovine serum in an incubator at 37° C./5% CO2. Tumor cells were subcultured, and after an appropriate concentration was reached and the tumor cells were in the logarithmic growth phase, the tumor cells were collected, counted and then resuspended in DPBS (phosphate buffered solution), and the concentration of the cell suspension was adjusted to 3×10^6/mL for inoculation.
Establishment of mouse colon cancer graft tumor: cells were collected and adjusted to a concentration of 3×10^6 cells/mL (resuspended in DPBS to obtain cell suspension), and 0.1 mL of tumor cells was injected subcutaneously at the right dorsal side of the mice under sterile conditions, and 3×10^5 cells were inoculated for each mouse. After the tumor grew to a certain size, the length (a) and the width (b) of the tumor was measured by using a digital vernier caliper, and the tumor volume (TV) was calculated, wherein the calculation formula is as follows: TV=a×b^2/2.
CT-26 tumor cell inoculation: on the day of inoculation, animals were grouped (8 animals for each) according to the body weight and subjected to drug administration separately, and the day of inoculation was considered as D0. When the tumor size reached about 60 mm^3, the animals in the antibody groups were grouped according to the tumor size and the body weight. The body weight and tumor size of the animals were measured three times a week during the experiment, while clinical symptoms of the animals were observed and recorded daily, and for each administration, reference was made to the animal body weight measured most recently. The inhibitory effect of the compound on colon cancer graft tumor in mice was determined after 21-day treatment at a dose of 30 mg/Kg QD (once daily), 90 mg/Kg QD (once daily) and 200 mg/Kg QD (once daily), and the specific information is shown in Table 5 below.
The calculation formula of T/C (%) is as follows: T/C (%)=(TRTV/CRTV)×100%. TRTV is the relative tumor volume of the treatment group, and CRTV is the relative tumor volume of the negative control group; TGI (%)^a=(1−average tumor volume at the end of administration of a treatment group/average tumor volume at the end of treatment of the vehicle control group)×100%.

Data set [4] relates to expression of PD-1, LAG3 and IL-10. The following applies: background statement; cited from earlier work.
The conditions of data set [5]: background statement; cited from earlier work.

Where a name gives a salt, the structure may show the parent alone.

Sequence of MNK2 (h) protein kinase (Q9HBH9 whole entry): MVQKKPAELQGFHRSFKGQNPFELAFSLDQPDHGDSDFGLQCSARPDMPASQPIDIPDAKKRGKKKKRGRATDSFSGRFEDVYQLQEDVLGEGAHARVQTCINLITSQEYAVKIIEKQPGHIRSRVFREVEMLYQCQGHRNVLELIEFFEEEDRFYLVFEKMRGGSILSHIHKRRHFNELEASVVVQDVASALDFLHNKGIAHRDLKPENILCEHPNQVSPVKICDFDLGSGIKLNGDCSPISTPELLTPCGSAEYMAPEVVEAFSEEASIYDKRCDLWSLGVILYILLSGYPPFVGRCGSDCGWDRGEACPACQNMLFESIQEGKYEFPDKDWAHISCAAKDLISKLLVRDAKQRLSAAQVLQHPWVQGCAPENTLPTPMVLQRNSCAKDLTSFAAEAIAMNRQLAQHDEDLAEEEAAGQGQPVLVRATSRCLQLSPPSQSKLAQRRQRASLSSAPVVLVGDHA

Take `Cc1cc(Nc2ncnn3cc(OCCN4CCCC4)c(C)c23)c(=O)n2c1C(=O)NC21CCNCC1` [Compound 2 (hydrochloride)]: at MNK2 (h) protein kinase, the IC50 was determined as 63 nM.
At MNK2 (h) protein kinase, `Cc1cc(Nc2ncnn3cc(OCCN4CCCC4)c(C)c23)c(=O)n2c1C(=O)NC21CCN(C)CC1` [Compound 3 (hydrochloride)] yielded an IC50 of 39 nM.
Take `Cc1c(OCCN2CCCC2)cn2ncnc(Nc3ccc4n(c3=O)C3(CCCCC3)NC4=O)c12` [Compound 4 (hydrochloride)]: the IC50 on MNK2 (h) protein kinase amounted to 25 nM; in data set [1], 14 nM.
In the case of `Cc1c(OCCN2CCCC2)cn2ncnc(Nc3cc(F)c4n(c3=O)C3(CCCCC3)NC4=O)c12` [Compound 5 (hydrochloride)], the figures for the half-maximal inhibitory concentration (IC50) (on MNK2 (h) protein kinase; in data set [1]) were 26 nM and 9.5 nM, respectively.
On to `Cc1c(OCCN2CCCC2)cn2ncnc(Nc3cc(Cl)c4n(c3=O)C3(CCCCC3)NC4=O)c12` [Compound 6 (hydrochloride)], for which the IC50 at MNK2 (h) protein kinase was determined as 21 nM; in data set [1] it was 0.66 nM.
In turn, `Cc1cc(Nc2ncnn3cc(OCCN4CCCC4)c(C)c23)c(=O)n2c1C(=O)NC21CCCC1` [Compound 7 (hydrochloride)] came in with an IC50 on MNK2 (h) protein kinase of 17 nM. In data set [1], this compound yielded an IC50 of 6.5 nM. Besides, in data set [2], the AUC(0-t) worked out at 1.39 µM·h, the half-life is 3.2 h and the Cmax worked out at 131 nM.
Turning to `Cc1cc(Nc2ncnn3cc(OCCN4CCCC4)c(C)c23)c(=O)n2c1C(=O)NC2(C)C` [Compound 8 (hydrochloride)], the IC50 on MNK2 (h) protein kinase was 33 nM; in data set [1], 24 nM.
Take `Cc1cc(Nc2ncnn3cc(OCCN4CCCC4)c(C)c23)c(=O)n2c1C(=O)NC21CCC(F)(F)CC1` [Compound 9 (hydrochloride)]: the IC50 at MNK2 (h) protein kinase is 30 nM; in data set [1], 12 nM.
As for `Cc1c(OCCN2CCCC2)cn2ncnc(Nc3cc(Cl)c4n(c3=O)C3(CCCC3)NC4=O)c12` [Compound 10 (hydrochloride)], the 50% inhibitory concentration (IC50) on MNK2 (h) protein kinase came out at 8 nM; in data set [1], 3.1 nM.
In turn, `Cc1cc(Nc2ncnn3cc(OCCN4CCC(F)(F)C4)c(C)c23)c(=O)n2c1C(=O)NC21CCCCC1` [Compound 11] had an IC50 on MNK2 (h) protein kinase of 28 nM. The compound further had an IC50 in data set [1] of 18.9 nM. In addition, the bioavailability in data set [2] (PO 2 mg/kg vs IV 0.5 mg/kg, read-out: Bioavailability F) was determined as 14.2%. In data set [2], the AUC(0-t) turned out to be 0.405 µM·h, the half-life was 12.1 h and the Cmax is 104 nM. Also, the clearance in data set [2] (intravenous injection 0.5 mg/kg, read-out: Clearance CL) turned out to be 21.8 mL/min/kg. For the same compound, the Vd in data set [2] (intravenous injection 0.5 mg/kg, read-out: Tissue distribution Vdss) was 2.53 L/kg.
In data set [1], `Cc1cc(Nc2ncnn3cc(OCCN4CCC(F)(F)C4)c(C)c23)c(=O)n2c1C(=O)NC21CCCC1` [Compound 12] gave a 50% inhibitory concentration (IC50) of 8.6 nM. For the same compound, the T/C % was found to be 36.43% in data set [3] (30 mg/Kg), 31.11% in data set [3] (90 mg/Kg) and 33.31% in data set [3] (200 mg/Kg). Moreover, the TGI % in data set [3] (30 mg/Kg) stood at 63.57%; in data set [3] (90 mg/Kg), 68.89%; in data set [3] (200 mg/Kg), 68.51%.
As for `Cc1cc(Nc2ncnn3cc(OC[C@H](C)N4CCCC4)c(C)c23)c(=O)n2c1C(=O)NC21CCCC1` [Compound 13], the IC50 at MNK2 (h) protein kinase was 14 nM; in data set [1] it was 10.5 nM.
`Cc1cc(Nc2ncnn3cc(OCC4CCNC4)c(C)c23)c(=O)n2c1C(=O)NC21CCCCC1` (centres unmarked) [Compound 15 (hydrochloride)] had an IC50 at MNK2 (h) protein kinase of 28 nM.
On to `Cc1cc(Nc2ncnn3cc(OCC4CCN(C)C4)c(C)c23)c(=O)n2c1C(=O)NC21CCCCC1` (centres unmarked) [Compound 16 (hydrochloride)], for which the IC50 on MNK2 (h) protein kinase amounted to 27 nM; in data set [1], 2.8 nM.
With `Cc1cc(Nc2cc(N)ncn2)c(=O)n2c1C(=O)NC21CCCCC1` [eFT508], in data set [4], the “effect on expression of PD-1, LAG3 and IL-10” value was “selectively inhibit the expression of PD-1, LAG3 and IL-10”. Further, the “safety in phase I clinical trial” value in data set [5] is recorded as “good safety”.

One may read the IC50 as the concentration that inhibits the measured activity by half. Low readings indicate inhibition by little substance, high ones a need for much substance. The bioavailability is the share of a dose that reaches the circulation, judged against a reference dose that is usually intravenous. The term clearance denotes the rate of elimination divided by the concentration.
